Where “and” joins values, the source holds several entries; their conditions need not be identical. Identical values can stand only once. In the oligonucleotide strings, read from the 5' end, every base follows the letter of its sugar. An asterisk marks phosphorothioate; unmarked linkages are phosphodiester. Other units and linkages are bracketed, terminal groups are in braces. A string of capitals states the bases alone. e = 2'-O-(2-methoxyethyl) (MOE); [5mC] = 5-methylcytosine; d = 2'-deoxy (DNA)
What was measured:
human TGF-beta1 mRNA [1] = assay: Antisense inhibition of human TGF-beta1 mRNA in HuVEC cells, single 10 nM dose, Lipofectamine 2000 (Example 2); assay type: cell-based; conditions: for % inhibition: 10 nM oligonucleotide, HuVEC, relative to untreated control cells; for inhibition of a TGF-beta1 mRNA: threshold lists of Oligo IDs, 10 nM
Procedure, shortened: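 HuVEC cells (5,000/well) transfected with 10 nM 2-13-5 MOE gapmer (phosphorothioate, 5-methylcytosine) via Lipofectamine 2000 for 4 h, then recovered ~24 h. mRNA measured by qRT-PCR, normalized to RIBOGREEN total RNA; percent inhibition versus untreated cells.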

human TGF-beta1 mRNA [2] = assay: Dose-dependent antisense inhibition of human TGF-beta1 in HuVEC cells, Lipofectamine 2000, 0.9375-30 nM (Example 3); assay type: cell-based; conditions: for percent inhibition of TGF-beta1: Lipofectamine 2000
Description: Cells were plated at a density of 5,000 cells per well and transfected using Lipofectamine™ 2000 reagent with 0.9375 nM, 1.875 nM, 3.75 nM, 7.5 nM, 15 nM, and 30 nM concentrations of antisense oligonucleotide for 4 hours, as specified in Table 3. After a recovery period of approximately 16 hours, RNA was isolated from the cells and TGF-beta1 mRNA levels were measured by quantitative real-time PCR. Human TGF-beta1 primer probe set RTS 2980 (forward sequence CTCTCCGACCTGCCACAGA, SEQ ID NO: 160; reverse sequence […], SEQ ID NO: 53; probe sequence CCCTATTCAAGACCACCCACCTTCTGGTX, SEQ ID NO: 161) was used to measure mRNA levels. TGF-beta1 mRNA levels were adjusted according to total RNA content, as measured by RIBOGREEN®. Results are presented as percent inhibition of TGF-beta1, relative to untreated control cells.

BALB/c mice = assay: Tolerability in BALB/c mice: plasma transaminases ALT and AST (Example 7); conditions: for aspartate transaminase levels: plasma
Description: These gapmer oligonucleotides were designed to target human TGF-beta1 and have varying degrees of mismatch with murine TGF-beta1 sequence, as shown in Table 1. Oligo ID Nos. 413982 and 414040 have greater than 3 mismatches to the murine TGF-beta1 sequence. Oligo ID No. 414035 has 2 mismatches to murine TGF-beta1. Oligo ID No. 414036 has no mismatches to murine TGF-beta1.
BALB/c mice were injected with 25 mg/kg or 50 mg/kg of Oligo ID Nos. 413982, 414035, 414036, or 414040 twice a week for 4 weeks. A control group of mice was injected with phosphate buffered saline (PBS) twice a week for 4 weeks. Plasma transaminase levels were evaluated bi-weekly.
To evaluate the impact of TGF-beta1 antisense oligonucleotides on the hepatic function of mice described above, plasma concentrations of transaminases were measured using an automated clinical chemistry analyzer (Hitachi Olympus AU400e, Melville, N.Y.).

human TGF-beta1 mRNA [3] = assay: Dose-dependent confirmation of antisense inhibition of human TGF-beta1 in HuVEC cells after large-scale synthesis, Lipofectamine 2000, 0.007-15 nM (Example 5); assay type: cell-based; conditions: for percent inhibition of TGF-beta1: Lipofectamine 2000
Description: Cells were plated at a density of 5,000 cells per well and transfected using Lipofectamine™ 2000 reagent with 0.007 nM, 0.021 nM, 0.062 nM, 0.185 nM, 0.556 nM, 1.667 nM, 5 nM, and 15 nM concentrations of antisense oligonucleotide for 4 hours, as specified in Table 5. After a recovery period of approximately 16 hours, RNA was isolated from the cells and TGF-beta1 mRNA levels were measured by quantitative real-time PCR. Human TGF-beta1 primer probe set RTS 2980 was used to measure mRNA levels. TGF-beta1 mRNA levels were adjusted according to total RNA content, as measured by RIBOGREEN®. Results are presented as percent inhibition of TGF-beta1, relative to untreated control cells.

human TGF-beta1 mRNA [4] = assay: Dose-dependent antisense inhibition of human TGF-beta1 in HuVEC cells, Lipofectamine 2000, 0.3292-80 nM, comparison with oligos of U.S. Pat. No. 6,436,909 (Example 4); assay type: cell-based
Description: The dose-dependent antisense inhibition potential of these gapmers was compared with that of Oligo IDs 104992 and 1138498 from U.S. Pat. No. 6,436,909. Cells were plated at a density of 5,000 cells per well and transfected using Lipofectamine™ 2000 reagent with 0.3292 nM, 0.9877 nM, 2.963 nM, 8.8889 nM, 26.6667 nM, and 80 nM concentrations of antisense oligonucleotide for 4 hours, as specified in Table 4. After a recovery period of approximately 16 hours, RNA was isolated from the cells and TGF-beta1 mRNA levels were measured by quantitative real-time PCR. Human TGF-beta1 primer probe set RTS 2980 was used to measure mRNA levels. TGF-beta1 mRNA levels were adjusted according to total RNA content, as measured by RIBOGREEN®. Results are presented as percent inhibition of TGF-beta1, relative to untreated control cells. […] All the antisense oligonucleotides in Table 4 target human TGF-beta1 mRNA (SEQ ID NO: 1).

human TGF-beta1 mRNA [5] = assay: Dose-dependent confirmation of antisense inhibition of human TGF-beta1 in HuVEC cells, electroporation (Example 6); assay type: cell-based
Description: The gapmers from Example 5 (see Table 5) were also tested at various doses in HuVEC cells using electroporation as the transfection reagent. Cells were plated at a density of 20,000 cells per well and transfected using electroporation with 0.15625 nM, 0.3125 nM, 0.625 nM, 1.25 nM, 2.5 nM, 5 nM, 10 nM, and 20 nM concentrations of antisense oligonucleotide for 4 hours, as specified in Table 6. After a recovery period of approximately 16 hours, RNA was isolated from the cells and TGF-beta1 mRNA levels were measured by quantitative real-time PCR. TGF-beta1 mRNA levels were adjusted according to total RNA content, as measured by RIBOGREEN®. Results are presented as percent inhibition of TGF-beta1, relative to untreated control cells.

[6] = gapmers targeted to SEQ ID NO: 1
[7] = gapmers targeted to SEQ ID NO: 2

## 414037 (antisense eG*eG*dG*dT*dG*dT*d[5mC]*d[5mC]*dT*dT*dA*dA*dA*dT*dA*e[5mC]*eA*eG*e[5mC]*e[5mC]) [compound 414037]
Human TGF-beta1 mRNA [1]; [6]
  % inhibition: 89%
Human TGF-beta1 mRNA [1]
  inhibition of a TGF-beta1 mRNA: 60% and 65% and 70% and 75% and 80% and 85%
Human TGF-beta1 mRNA [2]; 0.9375 nM
  percent inhibition of TGF-beta1: 56%
Human TGF-beta1 mRNA [2]; 1.875 nM
  percent inhibition of TGF-beta1: 74%
Human TGF-beta1 mRNA [2]; 3.75 nM
  percent inhibition of TGF-beta1: 87%
Human TGF-beta1 mRNA [2]; 7.5 nM
  percent inhibition of TGF-beta1: 93%
Human TGF-beta1 mRNA [2]; 15 nM
  percent inhibition of TGF-beta1: 93%
Human TGF-beta1 mRNA [2]; 30 nM
  percent inhibition of TGF-beta1: 92%

## 414040 (antisense e[5mC]*eT*d[5mC]*dT*d[5mC]*dT*d[5mC]*d[5mC]*dA*dT*d[5mC]*dT*dT*dT*dA*eA*eT*eG*eG*eG) [compound 414040]
BALB/c mice; 25 mg/kg twice a week, Week 2
  alanine transaminase levels: 178 IU/L
  aspartate transaminase levels: 128 IU/L
BALB/c mice; 25 mg/kg twice a week, Week 4
  alanine transaminase levels: 2248 IU/L
  aspartate transaminase levels: 1405 IU/L
BALB/c mice; 50 mg/kg twice a week, Week 2
  alanine transaminase levels: 837 IU/L
  aspartate transaminase levels: 529 IU/L
BALB/c mice; 50 mg/kg twice a week, Week 4
  alanine transaminase levels: 4997 IU/L
  aspartate transaminase levels: 2237 IU/L
BALB/c mice; compared to placebo (PBS) controls
  increase in ALT levels: > 160 fold and 166 fold
Human TGF-beta1 mRNA [3]; 0.007 nM
  percent inhibition of TGF-beta1: 19%
Human TGF-beta1 mRNA [3]; 0.021 nM
  percent inhibition of TGF-beta1: 45%
Human TGF-beta1 mRNA [3]; 0.062 nM
  percent inhibition of TGF-beta1: 58%
Human TGF-beta1 mRNA [3]; 0.185 nM
  percent inhibition of TGF-beta1: 76%
Human TGF-beta1 mRNA [3]; 0.556 nM
  percent inhibition of TGF-beta1: 83%
Human TGF-beta1 mRNA [3]; 1.667 nM
  percent inhibition of TGF-beta1: 89%
Human TGF-beta1 mRNA [3]; 5 nM
  percent inhibition of TGF-beta1: 92%
Human TGF-beta1 mRNA [3]; 15 nM
  percent inhibition of TGF-beta1: 93%
Human TGF-beta1 mRNA [3]; Lipofectamine 2000, Example 5
  IC50: 40 pM
Human TGF-beta1 mRNA [4]; 0.3292 nM
  percent inhibition of TGF-beta1: 85%
Human TGF-beta1 mRNA [4]; 0.9877 nM
  percent inhibition of TGF-beta1: 90%
Human TGF-beta1 mRNA [4]; 2.963 nM
  percent inhibition of TGF-beta1: 94%
Human TGF-beta1 mRNA [4]; 8.8889 nM
  percent inhibition of TGF-beta1: 94%
Human TGF-beta1 mRNA [4]; 26.6667 nM
  percent inhibition of TGF-beta1: 94%
Human TGF-beta1 mRNA [4]; 80.0 nM
  percent inhibition of TGF-beta1: 93%
Human TGF-beta1 mRNA [5]; 0.15625 nM oligonucleotide
  percent inhibition of TGF-beta1 mRNA relative to untreated control cells: 57%
Human TGF-beta1 mRNA [5]; 0.3125 nM oligonucleotide
  percent inhibition of TGF-beta1 mRNA relative to untreated control cells: 68%
Human TGF-beta1 mRNA [5]; 0.625 nM oligonucleotide
  percent inhibition of TGF-beta1 mRNA relative to untreated control cells: 81%
Human TGF-beta1 mRNA [5]; 1.25 nM oligonucleotide
  percent inhibition of TGF-beta1 mRNA relative to untreated control cells: 91%
Human TGF-beta1 mRNA [5]; 2.5 nM oligonucleotide
  percent inhibition of TGF-beta1 mRNA relative to untreated control cells: 93%
Human TGF-beta1 mRNA [5]; 5.00 nM oligonucleotide
  percent inhibition of TGF-beta1 mRNA relative to untreated control cells: 95%
Human TGF-beta1 mRNA [5]; 10.00 nM oligonucleotide
  percent inhibition of TGF-beta1 mRNA relative to untreated control cells: 94%
Human TGF-beta1 mRNA [5]; 20 nM oligonucleotide
  percent inhibition of TGF-beta1 mRNA relative to untreated control cells: 94%
Human TGF-beta1 mRNA [1]; [6]
  % inhibition: 90%
Human TGF-beta1 mRNA [1]
  inhibition of a TGF-beta1 mRNA: 60% and 65% and 70% and 75% and 80% and 85% and 90%
Human TGF-beta1 mRNA [2]; 0.9375 nM
  percent inhibition of TGF-beta1: 72%
Human TGF-beta1 mRNA [2]; 1.875 nM
  percent inhibition of TGF-beta1: 83%
Human TGF-beta1 mRNA [2]; 3.75 nM
  percent inhibition of TGF-beta1: 90%
Human TGF-beta1 mRNA [2]; 7.5 nM
  percent inhibition of TGF-beta1: 94%
Human TGF-beta1 mRNA [2]; 15 nM
  percent inhibition of TGF-beta1: 95%
Human TGF-beta1 mRNA [2]; 30 nM
  percent inhibition of TGF-beta1: 95%

## 414058 (antisense eA*eG*dG*dT*d[5mC]*dA*dA*dG*d[5mC]*d[5mC]*dA*dT*dG*dT*dG*eG*e[5mC]*eA*e[5mC]*e[5mC]) [compound 414058]
Human TGF-beta1 mRNA [1]; [7]
  % inhibition: 81%
Human TGF-beta1 mRNA [1]
  inhibition of a TGF-beta1 mRNA: 60% and 65% and 70% and 75% and 80%
Human TGF-beta1 mRNA [2]; 0.9375 nM
  percent inhibition of TGF-beta1: 46%
Human TGF-beta1 mRNA [2]; 1.875 nM
  percent inhibition of TGF-beta1: 65%
Human TGF-beta1 mRNA [2]; 3.75 nM
  percent inhibition of TGF-beta1: 78%
Human TGF-beta1 mRNA [2]; 7.5 nM
  percent inhibition of TGF-beta1: 88%
Human TGF-beta1 mRNA [2]; 15 nM
  percent inhibition of TGF-beta1: 87%
Human TGF-beta1 mRNA [2]; 30 nM
  percent inhibition of TGF-beta1: 81%

## 414102 (antisense eT*eT*dT*dG*dA*dA*d[5mC]*dT*dA*d[5mC]*dA*dT*dG*dG*dG*eT*e[5mC]*e[5mC]*eT*e[5mC]) [compound 414102]
Human TGF-beta1 mRNA [1]; [7]
  % inhibition: 86%
Human TGF-beta1 mRNA [1]
  inhibition of a TGF-beta1 mRNA: 60% and 65% and 70% and 75% and 80% and 85%
Human TGF-beta1 mRNA [2]; 0.9375 nM
  percent inhibition of TGF-beta1: 36%
Human TGF-beta1 mRNA [2]; 1.875 nM
  percent inhibition of TGF-beta1: 54%
Human TGF-beta1 mRNA [2]; 3.75 nM
  percent inhibition of TGF-beta1: 70%
Human TGF-beta1 mRNA [2]; 7.5 nM
  percent inhibition of TGF-beta1: 84%
Human TGF-beta1 mRNA [2]; 15 nM
  percent inhibition of TGF-beta1: 87%
Human TGF-beta1 mRNA [2]; 30 nM
  percent inhibition of TGF-beta1: 84%
Human TGF-beta1 mRNA [2]; Lipofectamine 2000, Example 3
  IC50: 1420 pM

## 414122 (antisense eT*e[5mC]*dA*d[5mC]*dT*dA*dA*d[5mC]*dA*d[5mC]*dA*dG*dA*dT*dT*eA*eA*eG*e[5mC]*eA) [compound 414122]
Human TGF-beta1 mRNA [1]; [7]
  % inhibition: 34%
